Measured values: BindingDB's records for doi:10.1111/cbdd.12867 (Jishou University, 2017)

Molecular target: Alpha-glucosidase MAL32 (Saccharomyces cerevisiae (strain ATCC 204508 / S288c), UniProt P38158)
Experiment: In Vitro α-Glucosidase Inhibitory Assay
Settings: pH 6.8
Protocol: The test compounds were dissolved in DMSO to prepare the required distributing concentration. α-Glucosidase inhibitory activity was assayed using 0.1 m phosphate buffer (pH 6.8) at 37°C. The enzyme (0.1 U/ml) in phosphate-buffered saline was incubated with various concentrations of test compounds at 37°C for 15 min. Then, 1.25 mm p-nitrophenyl α-D-glucopyranoside was added to the mixture as a substrate.After further incubation at 37°C for 30 min, the absorbance was measured spectrophotometrically at 405 nm. The sample solution was replaced by DMSO as a control. Acarbose was used as a positive control. All experiments were carried out in triplicates.

Sequence of Alpha-glucosidase MAL32 (P38158 whole entry): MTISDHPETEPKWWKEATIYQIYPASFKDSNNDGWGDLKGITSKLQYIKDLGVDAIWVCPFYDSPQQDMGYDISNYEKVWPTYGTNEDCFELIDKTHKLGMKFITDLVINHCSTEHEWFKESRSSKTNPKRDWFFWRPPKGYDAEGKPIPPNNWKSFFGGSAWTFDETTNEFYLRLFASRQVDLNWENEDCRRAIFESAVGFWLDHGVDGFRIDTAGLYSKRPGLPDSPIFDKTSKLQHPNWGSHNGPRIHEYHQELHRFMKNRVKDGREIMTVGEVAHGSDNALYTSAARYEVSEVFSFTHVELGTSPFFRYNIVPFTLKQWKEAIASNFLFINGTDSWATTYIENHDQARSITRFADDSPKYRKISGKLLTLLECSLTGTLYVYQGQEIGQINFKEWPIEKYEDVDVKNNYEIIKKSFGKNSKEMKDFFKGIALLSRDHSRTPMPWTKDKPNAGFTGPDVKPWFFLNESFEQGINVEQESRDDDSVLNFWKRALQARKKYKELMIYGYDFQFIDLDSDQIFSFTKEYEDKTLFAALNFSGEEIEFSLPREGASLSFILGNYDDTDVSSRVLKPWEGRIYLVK

| IC50 | SMILES |
| --- | --- |
| 4.48 µM | O=C(COc1ccc2ccc(=O)oc2c1)N/N=C1\C(=O)N(Cc2ccccc2)c2ccc(Br)cc21 [(Z)-N'-(1-benzyl-5-bromo-2-oxoindolin-3-ylidene)-2-((2-oxo-2H-chromen-7-yl)oxy)acetohydrazide (5r)] |
| 4.07 µM | O=C(COc1ccc2ccc(=O)oc2c1)N/N=C1\C(=O)N(Cc2ccc(Br)cc2)c2ccccc21 [(Z)-N'-(1-(4-bromobenzyl)-2-oxoindolin-3-ylidene)-2-((2-oxo-2H-chromen-7-yl)oxy)acetohydrazide (5m)] |
| 7.37 µM | O=C(COc1ccc2ccc(=O)oc2c1)N/N=C1\C(=O)N(Cc2ccccc2F)c2ccccc21 [(Z)-N'-(1-(2-fluorobenzyl)-2-oxoindolin-3-ylidene)-2-((2-oxo-2H-chromen-7-yl)oxy)acetohydrazide (5j)] |
| 14.1 µM | O=C(COc1ccc2ccc(=O)oc2c1)N/N=C1\C(=O)N(Cc2ccccc2)c2ccccc21 [(Z)-N'-(1-benzyl-2-oxoindolin-3-ylidene)-2-((2-oxo-2H-chromen-7-yl)oxy)acetohydrazide (5i)] |
| 14.2 µM | O=C(COc1ccc2ccc(=O)oc2c1)N/N=C1\C(=O)Nc2ccc(Br)cc21 [(Z)-N'-(5-bromo-2-oxoindolin-3-ylidene)-2-((2-oxo-2H-chromen-7-yl)oxy)acetohydrazide (5f)] |
| 77.8 µM | Cc1ccc2c(c1)/C(=N/NC(=O)COc1ccc3ccc(=O)oc3c1)C(=O)N2Cc1cccc(F)c1 [(Z)-N'-(1-(3-fluorobenzyl)-5-methyl-2-oxoindolin-3-ylidene)-2-((2-oxo-2H-chromen-7-yl)oxy)acetohydrazide (5o)] |
| 187 µM | O=C(COc1ccc2ccc(=O)oc2c1)N/N=C1\C(=O)Nc2ccccc21 [(Z)-2-((2-oxo-2H-chromen-7-yl)oxy)-N'-(2-oxoindolin-3-ylidene)acetohydrazide (5a)] |
| 197 µM | Cc1cc(C)c2c(c1)/C(=N/NC(=O)COc1ccc3ccc(=O)oc3c1)C(=O)N2 [(Z)-N'-(5,7-dimethyl-2-oxoindolin-3-ylidene)-2-((2-oxo-2H-chromen-7-yl)oxy)acetohydrazide (5c)] |
| 3.98 µM | O=C(COc1ccc2ccc(=O)oc2c1)N/N=C1\C(=O)N(Cc2ccc(Br)cc2)c2ccc(Br)cc21 [(Z)-N'-(5-bromo-1-(4-bromobenzyl)-2-oxoindolin-3-ylidene)-2-((2-oxo-2H-chromen-7-yl)oxy)acetohydrazide (5t)] |
| 9.47 µM | O=C(COc1ccc2ccc(=O)oc2c1)N/N=C1\C(=O)Nc2ccc([N+](=O)[O-])cc21 [(Z)-N'-(5-nitro-2-oxoindolin-3-ylidene)-2-((2-oxo-2H-chromen-7-yl)oxy)acetohydrazide (5g)] |
| 7.31 µM | O=C(COc1ccc2ccc(=O)oc2c1)N/N=C1\C(=O)N(Cc2ccccc2Cl)c2ccccc21 [(Z)-N'-(1-(2-chlorobenzyl)-2-oxoindolin-3-ylidene)-2-((2-oxo-2H-chromen-7-yl)oxy)acetohydrazide (5l)] |
| 2.85 µM | O=C(COc1ccc2ccc(=O)oc2c1)N/N=C1\C(=O)N(Cc2ccccc2Cl)c2ccc(Br)cc21 [(Z)-N'-(5-bromo-1-(2-chlorobenzyl)-2-oxoindolin-3-ylidene)-2-((2-oxo-2H-chromen-7-yl)oxy)acetohydrazide (5s)] |
| 12 µM | O=C(COc1ccc2ccc(=O)oc2c1)N/N=C1\C(=O)Nc2ccc(F)cc21 [(Z)-N'-(5-fluoro-2-oxoindolin-3-ylidene)-2-((2-oxo-2H-chromen-7-yl)oxy)acetohydrazide (5d)] |
| 9.33 µM | O=C(COc1ccc2ccc(=O)oc2c1)N/N=C1\C(=O)N(Cc2cccc(F)c2)c2ccccc21 [(Z)-N'-(1-(3-fluorobenzyl)-2-oxoindolin-3-ylidene)-2-((2-oxo-2H-chromen-7-yl)oxy)acetohydrazide (5k)] |
| 114 µM | Cc1ccc2c(c1)/C(=N/NC(=O)COc1ccc3ccc(=O)oc3c1)C(=O)N2 [(Z)-N'-(5-methyl-2-oxoindolin-3-ylidene)-2-((2-oxo-2H-chromen-7-yl)oxy)acetohydrazide (5b)] |
| 2.88 µM | O=C(COc1ccc2ccc(=O)oc2c1)N/N=C1\C(=O)N(Cc2cccc(F)c2)c2ccc(Cl)cc21 [(Z)-N'-(5-chloro-1-(3-fluorobenzyl)-2-oxoindolin-3-ylidene)-2-((2-oxo-2H-chromen-7-yl)oxy)acetohydrazide (5q)] |
| 269 µM | CN1C(=O)/C(=N\NC(=O)COc2ccc3ccc(=O)oc3c2)c2ccccc21 [(Z)-N'-(1-methyl-2-oxoindolin-3-ylidene)-2-((2-oxo-2H-chromen-7-yl)oxy)acetohydrazide (5h)] |
| 66.8 µM | Cc1ccc2c(c1)/C(=N/NC(=O)COc1ccc3ccc(=O)oc3c1)C(=O)N2Cc1ccccc1F [(Z)-N'-(1-(2-fluorobenzyl)-5-methyl-2-oxoindolin-3-ylidene)-2-((2-oxo-2H-chromen-7-yl)oxy)acetohydrazide (5n)] |
| 153 µM | O=C(COc1ccc2ccc(=O)oc2c1)N/N=C1\C(=O)Nc2ccc(Cl)cc21 [(Z)-N'-(5-chloro-2-oxoindolin-3-ylidene)-2-((2-oxo-2H-chromen-7-yl)oxy)acetohydrazide (5e)] |

| SMILES | IC50 |
| --- | --- |
| O=C(COc1ccc2ccc(=O)oc2c1)N/N=C1\C(=O)N(Cc2ccccc2F)c2ccc(Cl)cc21 [(Z)-N'-(5-chloro-1-(2-fluorobenzyl)-2-oxoindolin-3-ylidene)-2-((2-oxo-2H-chromen-7-yl)oxy)acetohydrazide (5p)] | 2.56 µM |
